Test results taken from patent publication US9422264B2, “Carbamate-substituted oxindole derivatives and use thereof for the treatment of vasopressin-dependent diseases” (AbbVie Deutschland GmbH & Co. KG, priority 2007, dated 2016).
Structures can show the parent of a compound that is named as a salt.

How the values were obtained:
[1] = biological target: human vasopressin V1a receptor (Homo sapiens, UniProt P37288); test: Vasopressin V1a receptor binding assay; conditions: selectivity quotient, human V1a versus human V1b
Chain of human vasopressin V1a receptor (P37288 whole entry): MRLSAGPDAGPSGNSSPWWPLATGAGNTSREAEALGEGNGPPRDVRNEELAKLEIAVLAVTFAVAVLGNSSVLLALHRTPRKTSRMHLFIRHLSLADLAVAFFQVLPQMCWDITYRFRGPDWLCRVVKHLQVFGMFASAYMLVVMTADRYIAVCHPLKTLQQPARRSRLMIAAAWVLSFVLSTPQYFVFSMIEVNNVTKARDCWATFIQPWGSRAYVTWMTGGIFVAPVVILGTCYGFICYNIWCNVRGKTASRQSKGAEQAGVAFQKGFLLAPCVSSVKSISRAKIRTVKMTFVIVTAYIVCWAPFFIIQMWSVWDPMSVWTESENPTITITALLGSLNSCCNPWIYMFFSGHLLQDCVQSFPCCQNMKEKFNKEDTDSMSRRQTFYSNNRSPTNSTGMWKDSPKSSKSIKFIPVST

[2] = biological target: T1, human vasopressin V1b receptor (Homo sapiens, UniProt P47901); test: Vasopressin V1b receptor binding assay; conditions: read-out: Ki(h-V1b)*
T1 construct: expressed in transfected cells; host or cells: CHO-K1 (cell line hV1b_3H2_CHO)
T1 sequence (P47901 1-424): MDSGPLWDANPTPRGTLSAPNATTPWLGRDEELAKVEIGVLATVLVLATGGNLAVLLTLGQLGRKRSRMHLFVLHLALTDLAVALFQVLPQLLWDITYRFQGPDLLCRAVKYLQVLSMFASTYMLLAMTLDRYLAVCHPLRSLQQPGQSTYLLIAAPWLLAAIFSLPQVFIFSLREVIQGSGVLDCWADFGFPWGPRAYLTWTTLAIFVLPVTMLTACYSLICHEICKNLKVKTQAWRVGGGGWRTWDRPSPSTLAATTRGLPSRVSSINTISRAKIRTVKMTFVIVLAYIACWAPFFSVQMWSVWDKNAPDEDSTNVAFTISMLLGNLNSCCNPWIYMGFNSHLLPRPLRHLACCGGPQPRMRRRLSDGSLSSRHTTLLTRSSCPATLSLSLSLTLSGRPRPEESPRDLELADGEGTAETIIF
Description: 1. Vasopressin V1b Receptor Binding Assay:
The substance concentration was further diluted 1:5 in the assay mixture (2% DMSO in the mixture).
All determinations were carried out as triplicate determinations.

[3] = Determination of the microsomal half-life / microsomal clearance (human liver microsomes); assay type: in vitro ADME; conditions: pH 7.4, 0.5 μM test substance
Description: 5. Determination of the Microsomal Half-Life:
The metabolic stability of the compounds of the invention was determined in the following assay.
The test substances were incubated in a concentration of 0.5 μM as follows:
0.5 μM test substance are preincubated together with liver microsomes from different species (from rat, human or other species) (0.25 mg of microsomal protein/ml) in 0.05 M potassium phosphate buffer of pH 7.4 in microtiter plates at 37° C. for 5 min. The reaction is started by adding NADPH (1 mg/mL). After 0, 5, 10, 15, 20 and 30 min, 50 μl aliquots are removed, and the reaction is immediately stopped and cooled with the same volume of acetonitrile. The samples are frozen until analyzed. The remaining concentration of undegraded test substance is determined by MSMS. The half-life (T½) is determined from the gradient of the signal of test substance/unit time plot, it being possible to calculate the half-life of the test substance, assuming first order kinetics, from the decrease in the concentration of the compound with time. The microsomal clearance (mCl) is calculated from mCl=In2/T½/(content of microsomal protein in mg/ml)×1000 […] (modified from references: Di, The Society for Biomoleculur Screening, 2003, 453-462; Obach, DMD, 1999 vol. 27. N 11, 1350-1359).

[4] = biological target: T2, recombinant human oxytocin receptors (Homo sapiens, UniProt P30559); test: Oxytocin receptor binding assay; conditions: selectivity quotient, human OT versus human V1b
T2 construct: expressed in transfected cells; host or cells: HEK-293 (transient)
T2 sequence (P30559 1-389): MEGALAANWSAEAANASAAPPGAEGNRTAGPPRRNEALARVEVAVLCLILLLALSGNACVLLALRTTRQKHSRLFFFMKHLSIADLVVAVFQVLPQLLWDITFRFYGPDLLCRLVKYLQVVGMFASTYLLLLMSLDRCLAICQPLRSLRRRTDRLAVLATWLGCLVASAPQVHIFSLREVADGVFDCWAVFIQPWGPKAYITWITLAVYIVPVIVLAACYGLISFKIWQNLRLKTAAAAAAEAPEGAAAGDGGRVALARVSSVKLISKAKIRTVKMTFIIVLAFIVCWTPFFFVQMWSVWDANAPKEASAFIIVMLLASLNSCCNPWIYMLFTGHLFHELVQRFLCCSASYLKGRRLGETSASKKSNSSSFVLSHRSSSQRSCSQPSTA
Description: 4. Oxytocin Receptor Binding Assay
Confluent HEK-293 cells with transiently expressing recombinant human oxytocin receptors were centrifuged at 750×g at room temperature for 5 minutes. The residue was taken up in ice-cold lysis buffer (50 mM Tris-HCl, 10% glycerol, pH 7.4 and Roche complete protease inhibitor) and subjected to an osmotic shock at 4° C. for 20 minutes. The lyzed cells were then centrifuged at 750×g at 4° C. for 20 minutes, the residue was taken up in incubation buffer, and aliquots of 10^7 cells/ml were prepared. The aliquots were frozen at −80° C. until used.
On the day of the experiment, the cells were thawed, diluted with incubation buffer and homogenized using a Multipette Combitip (Eppendorf, Hamburg). […] The nonspecific binding was determined with 10^−6 M oxytocin (Bachem AG, H2510). Triplicate determinations were set up. Bound and free radioligand were separated by filtration under vacuum with Whatman GF/B glass fiber filters with the aid of a Skatron cell harvester 7000. The bound radioactivity was determined by liquid scintillation measurement in a Tricarb Beta counter, model 2000 or 2200CA (Packard).

Compound | Ki(h-V1a)/Ki(h-V1b)* [1] | Ki [2] [nM] | microsomal CLint at 0.5 μM [3] [µL/min/mg] | Ki(h-OT)/Ki(h-V1b)* [4]
CCOc1ncccc1C1(OC(=O)N2CCN(C3CCN(C)CC3)CC2)C(=O)N(S(=O)(=O)c2ccccc2OC)c2ccc(C#N)cc21 (racemic) [Example 2, (±)-5-Cyano-3-(2-ethoxypyridin-3-yl)-1-[(2-methoxyphenyl)sulfonyl]-2-oxo-2,3-dihydro-1H-indol-3-yl-4-(1-methylpiperidin-4-yl)piperazine-1-carboxylate] | +++ (>75) | < 10 | 75 to 200 | +++ (>45)
CCOc1ncccc1C1(OC(=O)N2CCN(C3CCNCC3)CC2)C(=O)N(S(=O)(=O)c2ccc(OC)cc2OC)c2ccc(C#N)cc21 (racemic) [Example 25, (±)-5-Cyano-1-[(2,4-dimethoxyphenyl)sulfonyl]-3-(2-ethoxypyridin-3-yl)-2-oxo-2,3-dihydro-1H-indol-3-yl-4-piperidin-4-ylpiperazine-1-carboxylate as bis(trifluoroacetic acid) salt] | +++ (>75) | < 10 | 50 to 75 | + (15-25)
CCOc1ncccc1C1(OC(=O)N2CCN(C3CCN(C)CC3)CC2)C(=O)N(S(=O)(=O)c2ccc(OC)cc2)c2ccc(C#N)cc21 (racemic) [Example 5, (±)-5-Cyano-3-(2-ethoxypyridin-3-yl)-1-[(4-methoxyphenyl)sulfonyl]-2-oxo-2,3-dihydro-1H-indol-3-yl-4-(1-methylpiperidin-4-yl)piperazine-1-carboxylate] | +++ (>75) | < 10 | 75 to 200 | ++ (>25-45)
CCOc1ncccc1C1(OC(=O)N2CCC(N3CCN(C)CC3)CC2)C(=O)N(S(=O)(=O)c2ccccc2OC)c2ccc(C#N)cc21 (racemic) [Example 32, (±)-5-Cyano-3-(2-ethoxypyridin-3-yl)-1-[(2-methoxyphenyl)sulfonyl]-2-oxo-2,3-dihydro-1H-indol-3-yl 4-(4-methylpiperazin-1-yl)piperidine-1-carboxylate] | ++ (>25-75) | 10 to 50 | 75 to 200 | +++ (>45)
CCOc1ncccc1C1(OC(=O)N2CCC(N3CCNCC3)CC2)C(=O)N(S(=O)(=O)c2ccc(OC)cc2OC)c2ccc(C#N)cc21 (stereo not drawn) [Example 55, 5-Cyano-1-[(2,4-dimethoxyphenyl)sulfonyl]-3-(2-ethoxypyridin-3-yl)-2-oxo-2,3-dihydro-1H-indol-3-yl-4-piperazin-1-ylpiperidine-1-carboxylate as bis(trifluoroacetic acid) salt] | ++ (>25-75) | < 10 | 75 to 200 | + (15-25)
CCOc1ncccc1C1(OC(=O)N2CCN(C3CCNCC3)CC2)C(=O)N(S(=O)(=O)c2ccccc2)c2ccc(C#N)cc21 (racemic) [Example 28, (±)-5-Cyano-3-(2-ethoxypyridin-3-yl)-2-oxo-1-(phenylsulfonyl)-2,3-dihydro-1H-indol-3-yl 4-piperidin-4-ylpiperazine-1-carboxylate as bis(trifluoroacetic acid) salt] | ++ (>25-75) | 10 to 50 | < 50 | +++ (>45)

Further lines, results first:

Ki(h-V1a)/Ki(h-V1b)* [1] | Ki [2] [nM] | microsomal CLint at 0.5 μM [3] [µL/min/mg] | Ki(h-OT)/Ki(h-V1b)* [4] | Compound
+++ (>75) | < 10 | 75 to 200 | +++ (>45) | CCOc1ncccc1C1(OC(=O)N2CCN(C3CCN(C)CC3)CC2)C(=O)N(S(=O)(=O)c2ccc(OC)cc2OC)c2ccc(C#N)cc21 (racemic) [Example 1, (±)-5-Cyano-1-[(2,4-dimethoxyphenyl)sulfonyl]-3-(2-ethoxypyridin-3-yl)-2-oxo-2,3-dihydro-1H-indol-3-yl-4-(1-methylpiperidin-4-yl)piperazine-1-carboxylate]
++ (>25-75) | < 10 | 75 to 200 | ++ (>25-45) | CCOc1ncccc1C1(OC(=O)N2CCC(N3CCN(C)CC3)CC2)C(=O)N(S(=O)(=O)c2ccc(OC)cc2)c2ccc(C#N)cc21 (racemic) [Example 35, (±)-5-Cyano-3-(2-ethoxypyridin-3-yl)-1-[(4-methoxyphenyl)sulfonyl]-2-oxo-2,3-dihydro-1H-indol-3-yl 4-(4-methylpiperazin-1-yl)piperidine-1-carboxylate]
+++ (>75) | < 10 | < 50 | +++ (>45) | CCOc1ncccc1C1(OC(=O)N2CCN(C3CCN(C)CC3)CC2)C(=O)N(S(=O)(=O)c2ccccc2)c2ccc(C#N)cc21 (racemic) [Example 4, (±)-5-Cyano-3-(2-ethoxypyridin-3-yl)-2-oxo-1-(phenylsulfonyl)-2,3-dihydro-1H-indol-3-yl 4-(1-methylpiperidin-4-yl)piperazine-1-carboxylate]
+++ (>75) | < 10 | 75 to 200 | +++ (>45) | CCOc1ncccc1C1(OC(=O)N2CCC(N3CCN(CC)CC3)CC2)C(=O)N(S(=O)(=O)c2ccc(OC)cc2OC)c2ccc(C#N)cc21 (racemic) [Example 37, (±)-5-Cyano-1-[(2,4-dimethoxyphenyl)sulfonyl]-3-(2-ethoxypyridin-3-yl)-2-oxo-2,3-dihydro-1 H-indol-3-yl-4-(4-ethylpiperazin-1-yl)piperidine-1-carboxylate]
+++ (>75) | < 10 | < 50 | +++ (>45) | CCOc1ncccc1C1(OC(=O)N2CCN(C3CCN(CC)CC3)CC2)C(=O)N(S(=O)(=O)c2ccccc2)c2ccc(C#N)cc21.O=C(O)C(F)(F)F (racemic) [Example 10, (±)-5-Cyano-3-(2-ethoxypyridin-3-yl)-2-oxo-1-(phenylsulfonyl)-2,3-dihydro-1H-indol-3-yl 4-(1-ethylpiperidin-4-yl)piperazine-1-carboxylate, trifluoroacetic acid salt]
++ (>25-75) | < 10 | 50 to 75 | +++ (>45) | CCOc1ncccc1C1(OC(=O)N2CCC(N3CCN(CC)CC3)CC2)C(=O)N(S(=O)(=O)c2ccccc2)c2ccc(C#N)cc21 (racemic) [Example 40, (±)-5-Cyano-3-(2-ethoxypyridin-3-yl)-2-oxo-1-(phenylsulfonyl)-2,3-dihydro-1H-indol-3-yl 4-(4-ethylpiperazin-1-yl)piperidine-1-carboxylate]
